Patent publication US20250090493A1, “THERAPEUTIC COMPOSITION DELIVERY DEVICE” (Helios Cardio Inc., priority 2021, published 2025)

Key:
[1] = Amiodarone quantification in tissues by LC/MS after pericardial repair with amiodarone-soaked EBM patch, or IV amiodarone control, ovine model; assay type: in vivo; conditions: sheep
From the text: Specifically, EBM under the tradename CardiaMend™ was used. The device was approximately 1 mm thick (range 0.75-1.54 mm). An ovine model was used for a pericardial repair procedure. […] The EBM patch was then inserted through a hole cut through the pericardium via a mini-thoracotomy approach and secured with sutures at the margins of the pericardial defect. Following closure of the superficial muscle and skin, the animals were recovered, and housed until sacrifice at 3 days, 7 days, and 28 days. […] Following sacrifice, the repair site was explored, and the implant and heart were grossly evaluated for signs of inflammation, scarring, or fibrosis. Gross images were acquired.

[2] = as above; assay type: in vivo; conditions: sheep, 1000 mg/day, Maximum IV delivery-positive control Average, 1,000 mg/day via IV for 14 days

## CCCCc1oc2ccccc2c1C(=O)c1cc(I)c(OCCN(CC)CC)c(I)c1 [Amiodarone, amiodarone]
[1]; EBM 7 cm by 10 cm soaked in 6 mL of 50 mg/mL amiodarone hydrochloride, pericardial patch, myocardium, day 3
  Amiodarone concentration, Myocardium, Day 3 Average: 63.50 µg/g
[1]; EBM drug delivery, local single dose, left atrium, day 3-7
  Amiodarone concentration, Left Atrium, EBM drug delivery Day 3-7 Average: 96 µg/g
[1]; EBM drug delivery, local single dose, liver, day 3-7
  Amiodarone concentration, Liver, EBM drug delivery Day 3-7 Average: 1 µg/g
[1]; EBM drug delivery, local single dose, lung, day 3-7
  Amiodarone concentration, Lung, EBM drug delivery Day 3-7 Average: 4 µg/g
[1]; EBM drug delivery, local single dose, right atrium, day 3-7
  Amiodarone concentration, Right Atrium, EBM drug delivery Day 3-7 Average: 83 µg/g
[1]; EBM drug delivery, local single dose, ventricles, day 3-7
  Amiodarone concentration, Ventricles, EBM drug delivery Day 3-7 Average: 14 µg/g
[1]; amiodarone-soaked EBM pericardial patch, liver, day 28
  Amiodarone concentration, Liver, Day 28 Average: below the limit of detection
[2]; left atrium
  concentration at 14 day: 19000 ng/g
[2]; liver
  concentration at 14 day: 8000 ng/g
[2]; lung
  concentration at 14 day: 27000 ng/g
[2]; right atrium
  concentration at 14 day: 33000 ng/g
[2]; ventricles
  concentration at 14 day: 9000 ng/g
